From US5364615A (priority 1992, dated 1994)
Values joined by “and” are separate entries in the source; they are usually repeats but may differ in a detail not shown here. Equal values may be shown once. Read-outs that look alike come from different tables or passages of the source.

How the values were obtained:
Pneumocystis carinii [1] = assay: Prevention of PCP, different dosages and regimens (Example 6); format: in vivo, human
Text: A total of 438 participants were selected on the basis of seropositivity for HIV, and were stratified on the basis of (i) prior PCP (n=250), (ii) Kaposi's sarcoma (n=59), or (iii) ARC (n=129).

Side effects (Example 6) = format: in vivo, human
Pneumocystis carinii [2] = assay: Randomized trial 300 mg twice per month vs 600 mg once per month (Example 7); format: in vivo, human
Text: Five patients who developed PCP within 28 days were not evaluated. One hundred (66%) of the patients were concurrently receiving AZT, and 42 (28%) had experienced one prior episode of PCP.

[3] = Delivery efficiency, nebulizer retention and lung half-life of aerosolized pentamidine; design: species or system human
Text: As indicated above, Pneumocystis carinii infect the alveoli. […] It should also be understood that the amount of pentamidine deposited in the alveoli may be substantially less than the total amount aerosolized since a large portion is exhaled by the patient or is trapped on the interior surfaces of the nebulizer apparatus. […] This is true regardless of the dose size, duration of inhalation, and type of nebulizer used, Respirgard or Ultravent. […] Furthermore, even with minimization of airway deposition, there is a portion which is still deposited in the patient's airways.
The "amount nebulized" or "amount aerosolized" of the drug means the amount that actually leaves the apparatus as an aerosol, i.e., the amount placed into the apparatus less the amount retained in the reservoir and on the inner surfaces of the apparatus at the conclusion of a treatment session. "[…] of pentamidine delivered to the alveoli" refers to the amount of drug that is estimated to actually reach the alveoli.

[4] = in vivo
[5] = in vivo; remark: listed apart in the source
[6] = single 4 mg/kg intravenous dose, AIDS patients with P. carinii; cited from earlier work
[7] = inhaled pentamidine; cited from earlier work
[8] = Toxicity during PCP treatment (Example 1)
[9] = group b, 150 mg every two weeks
[10] = group c, 300 mg every four weeks
[11] = intravenous 4 mg/Kg, 18-24 h, per patient, 4 mg/kg

## N=C(N)c1ccc(OCCCCCOc2ccc(C(=N)N)cc2)cc1 [pentamidine, p,p'-(pentamethylenedioxy)dibenzamidine]
Pneumocystis carinii [1]; Kaposi's, group c, 300 mg every four weeks
  PCP Events: 0
Pneumocystis carinii [1]; at least three treatments
  relapse rate: 3.2%
Pneumocystis carinii [1]; of 372 participants
  participants experiencing relapse: 17
Pneumocystis carinii [1]; prior PCP, at least one treatment, historical controls 24.3%
  relapse rate: 5.9%
Pneumocystis carinii [1]; prior PCP, three or more treatments
  relapse rate: 4.2%
Pneumocystis carinii [1]; prior PCP, group a, 30 mg
  deaths due to PCP: 1
Pneumocystis carinii [1]; prior PCP, group a, 30 mg every two weeks
  PCP Events: 6
Pneumocystis carinii [1]; prior PCP, group b, 150 mg
  deaths due to PCP: 3
Pneumocystis carinii [1]; prior PCP, group b, 150 mg every two weeks
  PCP Events: 5
Pneumocystis carinii [1]; prior PCP, group c, 300 mg
  deaths due to PCP: 1
Pneumocystis carinii [1]; prior PCP, group c, 300 mg every four weeks
  PCP Events: 3
Side effects (Example 6); all groups
  withdrawals due to toxicity: no withdrawals due to toxicity
Side effects (Example 6); group a, 30 mg every two weeks
  Cough: 25%
  Metallic Taste: 11%
  Wheezing: 10%
Side effects (Example 6); [9]
  Cough: 34%
  Metallic Taste: 16%
  Wheezing: 14%
Side effects (Example 6); [10]
  Cough: 34%
  Metallic Taste: 20%
  Wheezing: 14%
Pneumocystis carinii [2]; 300 mg once per month, previous study
  attack rate of PCP at 6.38 months: 18%
Pneumocystis carinii [2]; 300 mg twice per month
  attack rate of PCP: 5.6%
Pneumocystis carinii [2]; 600 mg once per month
  attack rate of PCP: 8.1%
Pneumocystis carinii [2]; mean duration 10.6 months, 10 patients
  patients who developed PCP: 6.8%
Pneumocystis carinii [2]; this trial, p<0.01 vs 300 mg once per month
  attack rate of PCP at 6.38 months: 3%
[3]; 300 mg placed in nebulizer, estimate
  amount delivered to the alveoli: about 21 mg
[3]; 600 mg in 6 mL, Respirgard II, 3-4 mL nebulized, estimate
  absorbed dose: 45 to 60 mg
[3]; 600 mg placed in nebulizer, estimate
  amount delivered to the alveoli: about 42 mg
[3]; Respirgard or UltraVent, regardless of dose
  dose remaining in the nebulizer after inhalation: approximately one third of the pentamidine dose that is placed into the nebulizer remains in the nebulizer
[3]; estimate based on Mallinckrodt technical specifications
  fraction of total dose delivered to the alveoli: about 7%
[3]; human, lung, inhaled or intranasal, read-out: halflife in the lungs
  half-life: 21 to 42 days
[3]; to alveoli, estimate
  efficiency of delivery by inhalation: 7-10%
[4]
  hypotension or dysglycemia: no episodes of hypotension or dysglycemia
  inhalation-associated cough: Eight of thirteen patients (four of whom also experienced bronchospasm) had mild inhalation-associated cough
  reversible bronchospasm: occurred in five patients
18-24 h
  BAL sediment concentration, aerosol vs intravenous: 10-100 fold
  mean BAL supernatant (aerosol) vs BAL sediment (intravenous), factor: more than 2
Aerosol 300 mg, 18-24 h
  BAL sediment concentration, Mean ± SEM: 705 ± 242 ng/mL
  BAL supernatant concentration, Mean ± SEM: 23.2 ± 7.75 ng/mL
After aerosol administration
  systemic absorption: Little or no systemic absorption was detectable
Intravenous 4 mg/Kg, 18-24 h
  BAL sediment concentration, Mean ± SEM: 9.34 ± 1.74 ng/mL
  BAL supernatant concentration, Mean ± SEM: 2.64 ± 0.73 ng/mL
[11]
  BAL sediment concentration: 12.8 ng/mL and 6.89 ng/mL and 8.35 ng/mL
  BAL supernatant concentration: 1.48 ng/mL and 2.44 ng/mL and 4.0 ng/mL
Patients infected with P. carinii, either intravenous pentamidine or TMP-SMX
  response to standard therapy: All patients infected with P. carinii responded to standard therapy
[5]
  adverse systemic reactions (renal, liver, hematologic, hypoglycemia, hypotension): No adverse systemic reactions
  coughing with larger particles: most subjects began coughing within a few breaths
[6]
  mean peak serum pentamidine concentration: 612 ng/mL
[7]
  microscopic airway changes: no microscopic airway changes have been noted
[8]; approximately 165 determinations
  glucose: > 3.9 mmol/L
[8]; inhalation
  minor toxicity: One inhalation patient (16) experienced minor toxicity (rash)
[8]; inhalation, two of ten evaluable (neutropenia; both also received AZT)
  major toxicity: 20%
[8]; intravenous, elevated serum creatinine in three, depressed leukocyte count in one
  minor toxicity: occurred in four iv-treated patients
[8]; intravenous, patient 18 after ten days
  leukocyte count: 6e+08 L⁻¹
[8]; intravenous, two of nine (neutropenia, hepatotoxicity)
  major toxicity: 22%
[8]; iv-treated patients, two of 19 evaluated as printed
  change of therapy due to toxicity: 11%
